Laboratory results published in patent US20200239969A1, “METHODS AND COMPOSITIONS FOR USE OF TREX2 AS DIAGNOSTIC AND PROGNOSTIC MARKER FOR CANCER” (THE BOARD OF REGENTS OF THE UNIVERSITY OF TEXAS SYSTEM, priority 2017, published 2020).

Legend:
msh2^−/− cells = test: puro(A)10 polymerase slippage assay, puromycin resistant colonies; type: cell-based, mouse; details: puro(A)10 reporter, 10 μM TREX2 inhibitor, colonies counted about day 10, DMSO versus compounds p<0.02, FIGS. 8B, 8C
[1] = tested on: mouse embryonic stem (ES) cells; test: reduction of mutations in mouse ES cells by screening hits; type: cell-based; details: five of nineteen screening hits
Source text: Assays as described here were used to screen a Chembridge Diverset library (30,000 compounds). […] These small molecules are: 4-benzoyl-2-methyphenyl (2-nitrophenoxy) acetate; N-benzyl-2-([bis(furan-2-yl)-1,2,4-triazin-3-yl] sulfanyl) acetamide; 6-(benzylcarbamoyl)-1-methycyclohex-3-ene-1-carboxylic acid; 8-(phenylamino)naphthalene-1-sulfonic acid; and benzyl 6-(furan-2-yl)-3-methyl-4-oxo-4,5,6,7-tetrahydro-1H-indole-2-carboxylate. […] TX2Is appear to be nontoxic to cells and TREX2-deletion was asymptomatic for >50% of life span.

[2] = tested on: RAD51^K133A expressing cells; test: miniHPRT loss of heterozygosity (LOH) assay, TG-resistant cells; type: cell-based, mouse; details: control versus compounds p<0.018, average of three replicates, FIG. 8A
Protocol: To evaluate loss of heterozygosity, the loss of function (LOF) of miniHPRT was measured by survival in 6-TG. ES cells were grown in 1× hypoxanthine, aminopterin, thymidine (HAT) for at least 4 days followed by growth in 1× HT for 2 days and then no selection for 1 day. Cells were counted and seeded at 2×10^5 cells/10 cm feeder plates (3 plates) and selected in 10 μM 6-thioguanine (6-TG). For plating efficiency, 2000 cells were seeded on two wells of 6-well feeder plate. Eight days after plating, the number of 6-TG resistant colonies was counted. […] That is >159-fold difference. The average of three biological replicates are presented (p<0.0001 for lane 4 versus lanes 5 and 6, unpaired student T test). Deletion of TREX2 in HsRAD51^K133A expressing cells reduces loss of heterozygosity to levels lower than in wild type cells. Therefore, TREX2 caused greatest loss of heterozygosity and gross chromosomal rearrangements in HR-defective cells.
TREX2-deletion also imparts a synthetic phenotype in HR-mutant and MMR-mutant cells to hydroxyurea (HU) and camptothecin (CPT). Both CPT and HU stall RFs and are used for cancer therapy. CPT binds type 1 […] to DNA to cause a break when a replication fork collides into it while HU inhibits ribonucleotide reductase to deplete nucleotides. Therefore, TX2Is enhance cytotoxicity of chemotherapeutic agents in cancer cells while protecting the patient from mutations to reduce the risk of therapy-related disease. RAD51^K133A was expressed in mouse ES cells to negatively alter HR. In these HR defective cells, TREX2-deletion decreased survival to camptothecin and reduced loss of heterozygosity (LOH) to levels lower than cells expressing RAD51 wild type (WT) and TREX2 WT. LOH is loss of miniHPRT, which can be scored as resistance to 6-thioguanine (TG). FIGS. 5A and 5B are graphical representations of the effects of TREX2-deletions measured as survival fractions. […] The average of three biological replicates are presented.
Compounds #1, 6, and 10 reduce LOH in RAD51^K133A expressing cells using miniHPRT. […]

ES cells = test: response of ES cells to hydroxyurea (RPA32 phosphorylation, chromatid breaks)

SMILES	spontaneous polymerase slippage (fraction of puromycin resistant cells) (msh2^−/− cells)	effect on mutations in mouse ES cells [1]	LOH (percentage of TG-resistant cells) [2]	chromatid breaks (ES cells; high HU dose)	DNA damage response (RPA32 phosphorylation) (ES cells; high HU dose (4 mM, 5 hours))	DNA damage response (RPA32 phosphorylation) (ES cells; low HU dose (0.5 mM, 1.5 hours))
Cc1cc(C(=O)c2ccccc2)ccc1OC(=O)COc1ccccc1[N+](=O)[O-] [Compound 1, 4-benzoyl-2-methyphenyl (2-nitrophenoxy) acetate]	reduce spontaneous polymerase slippage	reduce a range of mutations	reduce LOH	–	–	–
O=S(=O)(O)c1cccc2cccc(Nc3ccccc3)c12 [Compound 6, 8-(phenylamino)naphthalene-1-sulfonic acid]	reduce spontaneous polymerase slippage	reduce a range of mutations	reduce LOH	–	–	–
O=C(CSc1nnc(-c2ccco2)c(-c2ccco2)n1)NCc1ccccc1 [Compound 10, N-benzyl-2-([bis(furan-2-yl)-1,2,4-triazin-3-yl]sulfanyl) acetamide]	reduce spontaneous polymerase slippage	reduce a range of mutations	reduce LOH	–	–	–
CC1(C(=O)O)CC=CCC1C(=O)NCc1ccccc1 (stereo not drawn) [Compound 11, 6-(benzylcarbamoyl)-1-methycyclohex-3-ene-1-carboxylic acid]	reduce spontaneous polymerase slippage	reduce a range of mutations	–	–	–	–
NC(=O)NO [HU, hydroxyurea]	–	–	–	produced more chromatid breaks	induced both an ATR and a DNA-PKCS response	induced an ATR response
Cc1c(C(=O)OCc2ccccc2)[nH]c2c1C(=O)CC(c1ccco1)C2 (stereo not drawn) [benzyl 6-(furan-2-yl)-3-methyl-4-oxo-4,5,6,7-tetrahydro-1H-indole-2-carboxylate]	–	reduce a range of mutations	–	–	–	–
